This note sets out measurements from patent US7723329B2, “Substituted-3-sulfonylindazole derivatives as 5-hydroxytryptamine-6 ligands” (Wyeth LLC, priority 2005, dated 2010).

Usually melting point stands for the temperature, or range, at which the solid turns liquid. The Ki is the dissociation constant of the complex between target and ligand, obtained from inhibition or displacement. A higher Ki goes with weaker binding.

Data set [1] deals with T1, human cloned 5-HT6 receptors (Homo sapiens, UniProt P50406).
T1 construct: expressed in transfected cells; host or cells: HeLa cells
Put plainly: 5-HT6 binding affinity, [3H]-LSD displacement. Particulars: membranes of Hela cells expressing human cloned 5-HT6 receptors; [3H]-LSD 3.0 nM; 120 minutes at room temperature.

Structures are written as SMILES. Structures can show the parent of a compound that is named as a salt.

T1 sequence (P50406 whole entry): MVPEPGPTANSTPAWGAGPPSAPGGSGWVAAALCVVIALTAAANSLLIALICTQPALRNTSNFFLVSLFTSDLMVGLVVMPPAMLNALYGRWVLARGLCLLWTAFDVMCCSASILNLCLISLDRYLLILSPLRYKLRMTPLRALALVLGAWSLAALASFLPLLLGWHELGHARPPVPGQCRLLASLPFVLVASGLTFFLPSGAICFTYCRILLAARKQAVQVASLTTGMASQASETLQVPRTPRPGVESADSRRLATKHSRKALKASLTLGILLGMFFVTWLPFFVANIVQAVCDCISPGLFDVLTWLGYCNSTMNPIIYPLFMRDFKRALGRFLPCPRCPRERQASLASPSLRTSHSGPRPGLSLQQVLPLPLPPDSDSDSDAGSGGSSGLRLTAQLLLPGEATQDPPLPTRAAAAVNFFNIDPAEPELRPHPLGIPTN

`CC(C)NCCCc1ccc2[nH]nc(S(=O)(=O)c3ccccc3)c2c1` (as salt: trifluoroacetate) [Example 179, N-Isopropyl-N-{3-[3-(phenylsulfonyl)-1H-indazol-5-yl]propyl}amine trifluoroacetate]: the melting point lay in the range of 169 to 171 °C.

On to `NCCCc1ccc2[nH]nc(S(=O)(=O)c3ccccc3)c2c1` (as salt: trifluoroacetate) [Example 180, {3-[3-(Phenylsulfonyl)-1H-indazol-5-yl]propyl}amine trifluoroacetate], for which the melting point lay within 92 to 94 °C. In turn, `Cl.NCCc1cccc2c(S(=O)(=O)c3ccccc3)n[nH]c12` [Example 174, {2-[3-(Phenylsulfonyl)-1H-indazol-7-yl]ethyl}amine Hydrochloride] registered a melting point of 157 to 160 °C. Moreover, the inhibition constant (Ki) in data set [1] fell in the range of 0.01 to 10 nM. For the compound `CNCCc1ccc2[nH]nc(S(=O)(=O)c3ccccc3)c2c1` [Example 175, N-Methyl-N-{2-[3-(phenylsulfonyl)-1H-indazol-5-yl]ethyl}amine], the melting point was 186 to 188 °C. The same compound displayed a Ki in data set [1] of 0.01 to 10 nM. For the compound `CNCCCc1ccc2[nH]nc(S(=O)(=O)c3cccc4ccccc34)c2c1` [Example 183], the melting point was 155 to 160 °C. For the same compound, the inhibition constant Ki in data set [1] lay in the range of 0.01 to 10 nM.

In the case of `CC(C)NCCCc1ccc2[nH]nc(S(=O)(=O)c3cccc4ccccc34)c2c1` [Example 185], the melting point fell in the range of 160 to 163 °C. For the same compound, in data set [1], the inhibitory constant (Ki) was in the range of 0.01 to 10 nM.

In the case of `CCN(C)CCCc1ccc2[nH]nc(S(=O)(=O)c3cccc4ccccc34)c2c1` [Example 186], the melting point is 205 to 207 °C. This compound also displayed an inhibition constant Ki in data set [1] of 0.01 to 10 nM. The matching figures for `O=S(=O)(c1cccc2ccccc12)c1n[nH]c2ccc(CCCN3CCCC3)cc12` [Example 187]: 135 to 138 °C and 0.01 to 10 nM. With `NCCCc1ccc2[nH]nc(S(=O)(=O)c3cccc4ccccc34)c2c1` [Example 188, {3-[3-(Naphthylylsulfonyl)-1H-indazol-5-yl]propyl}amine], the melting point is 92 to 94 °C. The compound also had a Ki in data set [1] of 0.01 to 10 nM. The like results for `CN(C)CCCCc1ccc2[nH]nc(S(=O)(=O)c3cccc4ccccc34)c2c1` [Example 190] were, in that order, 232 to 233 °C and 0.01 to 10 nM. Take `CCNCCCCc1ccc2[nH]nc(S(=O)(=O)c3cccc4ccccc34)c2c1` [Example 191]: the melting point is 140 to 145 °C. For the same compound, the Ki in data set [1] was in the range of 0.01 to 10 nM.

Compound `CC(C)NCCCCc1ccc2[nH]nc(S(=O)(=O)c3cccc4ccccc34)c2c1` [Example 192] showed a melting point of 145 to 150 °C. Besides, the Ki in data set [1] fell in the range of 0.01 to 10 nM. The matching figures for `CCN(C)CCCCc1ccc2[nH]nc(S(=O)(=O)c3cccc4ccccc34)c2c1` [Example 193]: 195 to 198 °C and 0.01 to 10 nM. The matching figures for `O=S(=O)(c1cccc2ccccc12)c1n[nH]c2ccc(CCCCN3CCCC3)cc12` [Example 194]: 238 to 240 °C and 11 to 25 nM. For the compound `CC(c1ccc2[nH]nc(S(=O)(=O)c3cccc4ccccc34)c2c1)N1CCN(C)CC1` (stereo not shown) [Example 203, 5-[1-(4-Methylpiperazin-1-yl)ethyl]-3-(1-naphthylsulfonyl)-1H-indazole], the melting point was in the range of 183 to 185 °C. The compound further registered an inhibition constant Ki in data set [1] of 0.01 to 10 nM.
